In ChEMBL document CHEMBL1201862, “PubChem BioAssay data set” (2004):
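Exposure lasted 48 hours, with cells grown in 96-well plates and compounds tested at five concentrations. GI50 = concentration required for 50% inhibition of growth.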 The source made the active and inactive calls. Rule as the data show it: active = GI50 up to about 1.1 µM and inactive = higher. Starred links: 1 amine or outer side, 2 acyl side, 3 side chain; linkers in the order of their positions; H or OH if unused. Positions of bridges follow the written chain, without caps; N, C: chain ends. Where a SMILES comes first, the peptide text is derived from it. Non-standard residues stand in square brackets, D forms with d. Residues, ends and D or L forms follow the SMILES beside them. [ ]: non-standard residue; d: D form. The star is where a group is joined. ξ: configuration not given here. X37 = CC[C@H](C)[C@@H](N[*:1])[C@@H](O)CC(=O)O[C@H](C(=O)[C@H](C)C(=O)[*:2])C(C)C; Bn2Val = CC(C)[C@@H](C(=O)*)N(Cc1ccccc1)Cc1ccccc1; NMeY = CN[C@@H](Cc1ccc(O)cc1)C(=O)O; NHPiperonyl = c1cc2c(cc1CN*)OCO2; dNMeL = CN[C@H](CC(C)C)C(=O)O; NMeV = CN[C@H](C(=O)O)C(C)C; dNMeA = CN[C@H](C)C(=O)O; ξΔPro = O=C(O)C1C=CCN1

Tests used:
Assay in all cases: growth of human tumour cells (NCI), 48 h
ACHN = tested on: ACHN
HCC 2998 = tested on: HCC 2998
HCT-116 = tested on: HCT-116
HCT-15 = tested on: HCT-15
HOP-62 = tested on: HOP-62
HT-29 = tested on: HT-29
K562 = tested on: K562
LOX IMVI = tested on: LOX IMVI
LXFL 529 = tested on: LXFL 529
Malme-3M = tested on: Malme-3M
NCI-H226 = tested on: NCI-H226
RPMI-8226 = tested on: RPMI-8226
SF-268 = tested on: SF-268
SK-MEL-28 = tested on: SK-MEL-28
U-251 = tested on: U-251
UO-31 = tested on: UO-31
IGROV-1 = tested on: IGROV-1
BT-549 = tested on: BT-549
DU-145 = tested on: DU-145
NCI/ADR-RES = tested on: NCI/ADR-RES

SMILES	GI50 (ACHN)	GI50 (HCC 2998)	GI50 (HCT-116)	GI50 (HCT-15) [µM]	GI50 (HOP-62)	GI50 (HT-29)	GI50 (K562)	GI50 (LOX IMVI)	GI50 (LXFL 529)	GI50 (Malme-3M)	GI50 (NCI-H226)	GI50 (RPMI-8226)	GI50 (SF-268)	GI50 (SK-MEL-28)	GI50 (U-251)	GI50 (UO-31)	GI50 (IGROV-1)	GI50 (BT-549)	GI50 (DU-145)	GI50 (NCI/ADR-RES)
COc1cc(Cl)cc(O)c(=O)c1OC	37.2 µM (inactive)	63.4 µM (inactive)	35.8 µM (inactive)	25.4	41.1 µM (inactive)	64.3 µM (inactive)	36.5 µM (inactive)	26.1 µM (inactive)	53.3 µM (inactive)	54.7 µM (inactive)	25.2 µM (inactive)	15.8 µM (inactive)	25.3 µM (inactive)	92.7 µM (inactive)	40.1 µM (inactive)	42.4 µM (inactive)				
COC(=O)C1CC(c2ccc(Cl)cc2)=NO1 (centres undefined)	> 100 µM (inactive)	> 100 µM (inactive)	> 100 µM (inactive)	> 100	> 100 µM (inactive)	> 100 µM (inactive)	> 100 µM (inactive)		> 100 µM (inactive)	> 100 µM (inactive)	> 100 µM (inactive)	> 100 µM (inactive)	> 100 µM (inactive)	> 100 µM (inactive)	> 100 µM (inactive)	> 100 µM (inactive)	> 100 µM (inactive)			
Cc1ccc(NCC(=O)N2CC(=O)Nc3ccccc32)cc1	> 100 µM (inactive)	> 100 µM (inactive)	> 100 µM (inactive)	> 100	> 100 µM (inactive)	> 100 µM (inactive)	> 100 µM (inactive)	> 100 µM (inactive)	> 100 µM (inactive)	> 100 µM (inactive)	> 100 µM (inactive)	> 100 µM (inactive)	> 100 µM (inactive)	> 100 µM (inactive)	> 100 µM (inactive)	> 100 µM (inactive)				
CN(C)CCNC(=O)c1ccc(C(=O)NCCN(C)C)c2nc3ccccc3cc12	0.637 µM (active)	0.9 µM (active)	0.301 µM (active)	2.96	0.979 µM (active)	0.452 µM (active)	0.61 µM (active)	0.519 µM (active)	0.729 µM (active)	1.38 µM (inactive)	1.16 µM (inactive)		0.962 µM (active)	1.74 µM (inactive)	0.533 µM (active)	4.81 µM (inactive)	1.62 µM (inactive)			
NCCCCCS(=O)(=O)O	> 100 µM (inactive)	> 100 µM (inactive)	> 100 µM (inactive)	> 100	> 100 µM (inactive)	> 100 µM (inactive)	> 100 µM (inactive)	> 100 µM (inactive)	> 100 µM (inactive)	> 100 µM (inactive)			> 100 µM (inactive)	> 100 µM (inactive)	> 100 µM (inactive)	> 100 µM (inactive)	> 100 µM (inactive)			
COc1ccc(/C=C/c2onc3c(=O)n(C)nc(-c4ccccc4)c23)cc1	> 100 µM (inactive)		> 100 µM (inactive)	> 100	89.3 µM (inactive)	45 µM (inactive)	> 100 µM (inactive)	> 100 µM (inactive)	> 100 µM (inactive)			> 100 µM (inactive)	> 100 µM (inactive)	> 100 µM (inactive)	> 100 µM (inactive)	> 100 µM (inactive)	> 100 µM (inactive)			
CCOC(=O)C1CC/C(=C(/C#N)C(=O)OC)N1 (centres undefined)	> 100 µM (inactive)	> 100 µM (inactive)	> 100 µM (inactive)	> 100	> 100 µM (inactive)		> 100 µM (inactive)	> 100 µM (inactive)	> 100 µM (inactive)			> 100 µM (inactive)	> 100 µM (inactive)	> 100 µM (inactive)	> 100 µM (inactive)	> 100 µM (inactive)	> 100 µM (inactive)			
Cc1ccc(C2CC(c3ccco3)=NN2c2ccccc2)o1 (centres undefined)	> 100 µM (inactive)		> 100 µM (inactive)	> 100	> 100 µM (inactive)	> 100 µM (inactive)	> 100 µM (inactive)	> 100 µM (inactive)	> 100 µM (inactive)	> 100 µM (inactive)	> 100 µM (inactive)	> 100 µM (inactive)	> 100 µM (inactive)	> 100 µM (inactive)	> 100 µM (inactive)	> 100 µM (inactive)	> 100 µM (inactive)			
COc1ccc2cccc(C(=N)c3ccc(C)c4c3CCC4)c2c1	9.98 µM (inactive)	10.8 µM (inactive)	4.59 µM (inactive)	7.46	7.26 µM (inactive)	4.02 µM (inactive)	2.92 µM (inactive)	11.7 µM (inactive)	4.86 µM (inactive)	3.62 µM (inactive)	12.2 µM (inactive)		16.4 µM (inactive)	13 µM (inactive)	9.57 µM (inactive)	4.45 µM (inactive)	6.15 µM (inactive)			
Cn1c2ccccc2c(=O)c2c([N+](=O)[O-])ccc(NCCN)c21	6.3 µM (inactive)	7.98 µM (inactive)	3.73 µM (inactive)	12.9	14 µM (inactive)	4.47 µM (inactive)			8.63 µM (inactive)	14.9 µM (inactive)	13.7 µM (inactive)		11.3 µM (inactive)	15.3 µM (inactive)	12.8 µM (inactive)	5.64 µM (inactive)	12.3 µM (inactive)			
CCCNCC(=O)O[C@]1(CC)C(=O)OCc2c1cc1n(c2=O)Cc2cc3ccccc3nc2-1	< 0.01 µM (active)	0.661 µM (active)	0.164 µM (active)		< 0.01 µM (active)	0.274 µM (active)	0.181 µM (active)	0.0134 µM (active)	1.42 µM (inactive)	0.334 µM (active)	0.0121 µM (active)	0.0498 µM (active)	< 0.01 µM (active)	2.31 µM (inactive)	< 0.01 µM (active)	0.0637 µM (active)	0.325 µM (active)			
CC(=O)OCc1cc(OC(C)=O)cnc1COC(C)=O	> 100 µM (inactive)		> 100 µM (inactive)	> 100	> 100 µM (inactive)	> 100 µM (inactive)	> 100 µM (inactive)	> 100 µM (inactive)	> 100 µM (inactive)	> 100 µM (inactive)	> 100 µM (inactive)		> 100 µM (inactive)	> 100 µM (inactive)	> 100 µM (inactive)	> 100 µM (inactive)	> 100 µM (inactive)			
CC1(C)C(=O)/C=C\C(=O)C(C)(C)C2=CC=C(O2)C(C)(C)C(=O)/C=C\C(=O)C(C)(C)C2=CC=C1O2	> 100 µM (inactive)	> 100 µM (inactive)	> 100 µM (inactive)	> 100	> 100 µM (inactive)	> 100 µM (inactive)	> 100 µM (inactive)	> 100 µM (inactive)	> 100 µM (inactive)	> 100 µM (inactive)	> 100 µM (inactive)		> 100 µM (inactive)	> 100 µM (inactive)	> 100 µM (inactive)		> 100 µM (inactive)			
C/N=C(\NC(=S)N(C)C)N(C)C	> 100 µM (inactive)	> 100 µM (inactive)	> 100 µM (inactive)	> 100	> 100 µM (inactive)	> 100 µM (inactive)	> 100 µM (inactive)		> 100 µM (inactive)	> 100 µM (inactive)	48.5 µM (inactive)	> 100 µM (inactive)	> 100 µM (inactive)	> 100 µM (inactive)	> 100 µM (inactive)	> 100 µM (inactive)	> 100 µM (inactive)			
CCCCCCCCCCCC[N+]12CC[N+](CCN)(CC1)CC2	> 100 µM (inactive)	35 µM (inactive)	> 100 µM (inactive)		68.5 µM (inactive)	67.8 µM (inactive)	32.1 µM (inactive)	37.8 µM (inactive)	81.7 µM (inactive)	> 100 µM (inactive)	63.7 µM (inactive)	28.2 µM (inactive)	37.2 µM (inactive)	> 100 µM (inactive)	34.5 µM (inactive)	> 100 µM (inactive)	10.8 µM (inactive)			
CC(C)[C@H](NC(=O)[C@H](C(C)C)N(Cc1ccccc1)Cc1ccccc1)C(=O)N(C)[C@H](C(=O)N1CCC[C@H]1C(=O)N(C)[C@H](C)C(=O)NCc1ccc2c(c1)OCO2)C(C)C (Bn2Val-V[NMeV]P[dNMeA]-NHPiperonyl)	8.11 µM (inactive)	3.23 µM (inactive)	3.48 µM (inactive)	3.54	29.9 µM (inactive)	3.03 µM (inactive)	2.59 µM (inactive)	5.9 µM (inactive)		21.9 µM (inactive)	16.8 µM (inactive)	1.99 µM (inactive)	17.7 µM (inactive)	22.4 µM (inactive)	4.33 µM (inactive)	21.6 µM (inactive)	3.95 µM (inactive)	13.2 µM (inactive)	11.6 µM (inactive)	2.91 µM (inactive)
CC[C@H](C)[C@H]1NC(=O)[C@@H](NC(=O)[C@@H](CC(C)C)N(C)C(=O)C2C=CCN2)[C@@H](C)OC(=O)[C@H](Cc2ccc(OC)cc2)N(C)C(=O)[C@@H]2CCCN2C(=O)[C@H](CC(C)C)NC(=O)[C@@H](C)C(=O)[C@H](C(C)C)OC(=O)C[C@@H]1O (some centres undefined) (H-[ξΔPro][dNMeL]T[X37]LP[NMeY](Me); ester 3-C)	< 0.005 µM (active)	< 0.005 µM (active)	< 0.005 µM (active)	0.0162	< 0.005 µM (active)	< 0.005 µM (active)	< 0.005 µM (active)	< 0.005 µM (active)		< 0.005 µM (active)	< 0.005 µM (active)	< 0.005 µM (active)	< 0.005 µM (active)	< 0.005 µM (active)	< 0.005 µM (active)	0.0204 µM (active)	< 0.005 µM (active)	< 0.005 µM (active)	< 0.005 µM (active)	0.0617 µM (active)
